Results on one compound are retold here after PMC12365235, “Molecular mechanisms of thiazide-like diuretics-mediated inhibition of the human Na-Cl cotransporter” (Nature Communications, 2025).

Assay [1] concerns hNCC(V229M). Description: 125I- uptake assay, hNCC(V229M) variant. The assay is classed as cell-based, human. The note with it: V229M polymorphism. How it is done:
(§1) HEK293S cell lines, cultured in 293 Freestyle medium (Life Technologies; plus 10% fetal bovine serum), stably expressing hNCC and its variants were generated following published protocols. Cells were transfected using Lipofectamine 3000 (Invitrogen) with a pSBbi-RP-based plasmid containing hNCC or its variants and the SB100X vector. Puromycin (2 μg/mL; Gemini Bio-Products) was used for selection of stable cell lines.
To prepare for the uptake experiment, cells were plated at 0.5 × 10^6 cells/well in 24-well plates one day in advance. To activate NCC, cells were treated with a chloride-free hypotonic solution composed of 67.5 mM sodium-, 2.5 mM potassium-, 0.25 mM magnesium-, and 0.25 mM calcium-gluconate, as well as 7.5 mM HEPES pH 7.4 (buffered using Tris) at 37 °C for 10 min[72]. After the activation step, the experiments were carried out at room temperature. Ten minutes before the start of ^125I^− uptake, 70 μM Bumetanide (Thermo Scientific Chemicals) and 100 μM 4,4′-diisothiocyanatostilbene-2,2′-disulfonic acid (DIDS; Sigma) were added to suppress background iodide uptake activity. Indicated thiazide diuretics were also added to the indicated concentrations 10 min before the start of ^125I^− uptake. […] Cells lysed using 1% sodium dodecyl sulfate (SDS) were analyzed by scintillation counting. […]

For assay [2], the target named is T1, hNCC(C472F) (Homo sapiens, UniProt P55017, C472F).
T1 construct: expressed in transfected cells
T1 sequence (P55017 1-1021 C472F): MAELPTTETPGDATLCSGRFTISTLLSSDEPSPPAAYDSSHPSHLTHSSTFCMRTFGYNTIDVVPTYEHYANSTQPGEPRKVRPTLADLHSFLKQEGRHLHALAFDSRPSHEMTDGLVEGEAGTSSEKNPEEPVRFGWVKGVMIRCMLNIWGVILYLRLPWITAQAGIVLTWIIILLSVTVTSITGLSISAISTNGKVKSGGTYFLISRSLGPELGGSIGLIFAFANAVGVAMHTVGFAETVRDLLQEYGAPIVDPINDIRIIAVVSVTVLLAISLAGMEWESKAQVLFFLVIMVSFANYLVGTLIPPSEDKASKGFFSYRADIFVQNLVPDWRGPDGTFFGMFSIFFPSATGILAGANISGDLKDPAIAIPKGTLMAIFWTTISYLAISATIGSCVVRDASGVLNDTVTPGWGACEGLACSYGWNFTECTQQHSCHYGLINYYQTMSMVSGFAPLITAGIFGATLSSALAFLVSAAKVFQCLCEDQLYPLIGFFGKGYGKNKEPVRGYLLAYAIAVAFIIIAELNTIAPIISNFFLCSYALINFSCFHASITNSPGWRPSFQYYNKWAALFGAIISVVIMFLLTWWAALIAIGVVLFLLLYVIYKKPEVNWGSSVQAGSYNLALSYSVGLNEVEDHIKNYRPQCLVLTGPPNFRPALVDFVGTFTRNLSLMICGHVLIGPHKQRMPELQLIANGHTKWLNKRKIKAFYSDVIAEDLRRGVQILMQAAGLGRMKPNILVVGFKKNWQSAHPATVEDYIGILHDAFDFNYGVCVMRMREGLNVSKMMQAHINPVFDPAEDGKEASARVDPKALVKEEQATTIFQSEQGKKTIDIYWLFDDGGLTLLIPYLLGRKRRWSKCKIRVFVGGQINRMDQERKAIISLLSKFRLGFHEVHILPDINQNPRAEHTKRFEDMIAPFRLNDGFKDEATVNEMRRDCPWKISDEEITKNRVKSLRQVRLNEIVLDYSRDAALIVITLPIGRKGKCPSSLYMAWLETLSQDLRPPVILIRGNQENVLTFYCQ
Description: 125I- uptake assay, hNCC(C472F) variant. The assay is classed as cell-based. How it is done: as §1
To prepare for the uptake experiment, cells were plated at 0.5 × 10^6 cells/well in 24-well plates one day in advance. To activate NCC, cells were treated with a chloride-free hypotonic solution composed of 67.5 mM sodium-, 2.5 mM potassium-, 0.25 mM magnesium-, and 0.25 mM calcium-gluconate, as well as 7.5 mM HEPES pH 7.4 (buffered using Tris) at 37 °C for 10 min[72]. After the activation step, the experiments were carried out at room temperature. Ten minutes before the start of ^125I^− uptake, 70 μM Bumetanide (Thermo Scientific Chemicals) and 100 μM 4,4′-diisothiocyanatostilbene-2,2′-disulfonic acid (DIDS; Sigma) were added to suppress background iodide uptake activity. Indicated thiazide diuretics were also added to the indicated concentrations 10 min before the start of ^125I^− uptake. The original buffer was switched to an uptake buffer composed of 135 mM Na-gluconate, 5 mM K-gluconate, 1 mM Mg-gluconate, 1 mM Ca-gluconate, 70 μM bumetanide, 100 μM DIDS, 1 mM NaI, 0.25 μCi/ml Na^125I (American Radiolabeled Chemicals, Inc.), and 15 mM HEPES pH 7.4 (buffered using Tris), in the presence or absence of thiazide diuretics to initiate ^125I^− uptake. The ^125I^− uptake process lasted 1 h and was stopped by two rapid washes using ice-cold 110 mM MgCl2. Cells lysed using 1% sodium dodecyl sulfate (SDS) were analyzed by scintillation counting.

Regarding `CN1C(CSCC(F)(F)F)Nc2cc(Cl)c(S(N)(=O)=O)cc2S1(=O)=O` (stereo not shown) [polythiazide], the “fold reduction of sensitivity relative to hNCC(WT)” value in assay [1] is ~ 5 fold. Further, the inhibition at 100 µM in assay [2] (100 μM polythiazide, C472F, read-out: inhibition of transport activity) is about 50%. Also, in assay [2] (C472F substitution), the “decrease in potency relative to hNCC(WT)” value is on record as “approximately 200,000 fold”. Moreover, the concentration for half-maximal inhibition (IC50) in assay [2] (C472F substitution, estimated from ~50% inhibition at 100 μM) is about 100 µM.

Broadly, the inhibition is the drop in the measured response relative to a control, in per cent. One may read the IC50 as the concentration needed to halve the response being measured.
